These results are taken from paper PMC10403513, “Tasmanian devil cathelicidins exhibit anticancer activity against Devil Facial Tumour Disease (DFTD) cells” (Scientific Reports, 2023).

The subject of data set [1] is DFT1 1426 cells. Format: cell-based, Tasmanian devil (Sarcophilus harrisii). Conditions: for decrease in cell viability compared to the growth control: alamarBlue, quadruplicate; for cell viability (% of untreated growth control): 500 µg/mL, after 18 h, mean of quadruplicate; for concentration toxic to DFT1 1426 cells: summary in the discussion. As to the method: The DFT1 cell line 1426, derived from a primary DFT1 tumour, was obtained from Menzies Institute for Medical Research, University of Tasmania. The cell line was maintained in RPMI 1640 media with 2 mM L-glutamine (Gibco) supplemented with 10% AmnioMax II (Gibco), 10% heat-inactivated foetal bovine serum (FBS) and 1% penicillin/streptomycin (Sigma-Aldrich), in T75 flasks (Nunc) at 35 °C 5% CO2. Cells were passaged using trypsin–EDTA (Sigma-Aldrich) when 90% confluent.
Toxicity of seven Tasmanian devil cathelicidins against DFT1 1426 cells was determined for twofold dilutions from 500 to 15.62 µg/mL, and four different timepoints (12, 18, 24 and 36 h). Confluent DFT1 1426 cells (passage 22) were re-suspended in RPMI 1640 with 10% FBS and 10% AmnioMax II at a concentration of 5 × 10^5 cells/mL, and 100μL seeded into each well of a sterile flat-bottom 96 well plate (Corning), with individual plates for each timepoint (12, 18, 24 and 36 h). All plates were incubated for 24 h at 35 °C 5% CO2 prior to the cytotoxicity test.
At 0 h, 100 μL of each peptide dilution was then added to each plate in quadruplicate for all timepoints (12, 18, 24 and 36 h), resulting in a final peptide concentrations of 500 μg/mL, 250 μg/mL, 125 μg/mL, 62.50 μg/mL, 31.25 μg/mL and 15.62 μg/mL. […] An untreated growth control of RPMI 1640, a positive control of dimethylsulfoxide (DMSO) (15%) and sterility control of RPMI 1640 only (no cells) were also included for each time point.
For the 12 h timepoint, 10% alamarBlue was immediately added to each well of the plate after addition of the peptide. For the remaining timepoints, plates were incubated for an additional 6, 12 or 24 h after addition of the peptides, then 10% alamarBlue added to each well. For all timepoints, after the addition of alamarBlue cells were incubated for a further 12 h, resulting in a total peptide incubation period of 12, 18, 24 and 36 h. Absorbance of alamarBlue for all timepoints was determined at 570 nm and 630 nm on a Biotek 800 TS microplate reader. Cell viability was calculated according to manufacturer’s instructions and expressed as a percentage of cell survival compared to the untreated growth control.
A one-sample, one-tailed t-test was used to test for significant difference in viability between treated cells and the negative growth control. A one sample, two-tailed t-test was also conducted to ensure there was no significant difference in viability between the negative growth control and the cells treated with the solvent only. Statistical analysis was conducted in R (R Development Core Team 2021).

In data set [2] the test system is DFT1 1426 cells. Put plainly: RNAseq differential gene expression in peptide-treated DFT1 1426 cells. Format: cell-based, Tasmanian devil (Sarcophilus harrisii). The settings on record: 500 μg/mL, 10 h, n = 3, vs vehicle control; for percentage of DE genes: of 15,548 genes. As to the method: RNAseq was used to characterize the mechanisms underlying the anticancer activity of the peptides. Confluent DFT1 1426 cells (passage number 25) were re-suspended at a concentration of 5 × 10^5 cells/ml and 1 mL seeded into each well of a sterile flat-bottom polystyrene 12-well plate (Corning). Following incubation for 24 h at 35 °C 5% CO2, media was aspirated from the cells and replaced with 500 μL of RPMI 1640 with 2 mM L-glutamine, 10% FBS and 10% AmnioMax II. 500 μL of each 1 mg/mL peptide solution (Saha-CATH1 to 7) was then added to the plate in triplicate, to give a final peptide concentration of 500 μg/mL. […] A vehicle control was also added to the plate in triplicate.
The plate was then incubated for a further 10 h at 35 °C in 5% CO2. This incubation period was selected as the cytotoxicity assay indicated it was sublethal for most of the peptides and would maintain sufficient cell viability to extract intact RNA. Media was then aspirated from the cells, which were washed twice with Dulbecco’s phosphate buffered saline (DPBS) (Sigma-Aldrich).
Total RNA was extracted from each replicate of the peptide-treated and vehicle control cells (n = 3) using the RNeasy mini kit (Qiagen) with cell lysis directly in each well of the 12 well plate. Total RNA was quality assessed using the RNA nano 6000 kit on the Agilent Bioanalyzer with all samples displaying a RIN score between 5 and 9. In total, 24 RNA samples corresponding to three treatments per peptide (Saha-CATH1 to 7) and a vehicle control were submitted to Ramaciotti Centre for Genomics (The University of New South Wales) for sequencing. Illumina TruSeq mRNA libraries were prepared for all samples, which were sequenced as 2 × 150 bp paired-end reads across an SP flowcell on the NovaSeq6000.
Raw reads were quality assessed using FastQC v0.11.8[47], then quality and length trimmed using Trimmomatic v0.39[48] using default parameters. Trimmed reads for each treatment (n = 3) and the control (n = 3) were aligned to the Tasmanian devil reference genome v7.0 (NCBI: GCA_000189315.1[49] using STAR v2.7.8a[50]. Alignments for each treatment were summarized into gene counts using featureCounts in the subread package v1.5.1[51].
Gene counts were used as input for differential expression analysis in R[52]. Genes with less than 50 counts across all samples were removed from the analysis, as these were unlikely to be biologically relevant and lacked sufficient statistical power. Firstly, the data was normalized by trimmed mean of M values (TMM) using edgeR v3.32.1[53] to account for any composition bias between libraries and to give an effective library size for downstream analysis. Multidimensional scaling (MDS) was used to check for variation between treatments using limma v3.36.0[54]. Expression levels were then normalized using upper-quartile normalization in EDAseq v2.24.0[55] to account for differences in distribution between lanes, such as sequencing depth. Differential expression analysis was performed using voom in the limma v3.36.0 package.
(§1) Over-representation analysis of Biological Processes was conducted in clusterProfiler v3.18.1[57]. Statistical significance was adjusted for multiple comparisons using the Benjamini–Hochberg method, and terms were considered significant when p-adj < 0.05. To remove general terms, gene sets larger than 200 were removed, and the simplify function was used to remove redundant GO terms. Further pathway analysis was conducted in IPA (Qiagen)[58], using mammal as the species type and nervous system for the tissue/cell type.

The test system of data set [3] is DFT1 1426 cells. Put plainly: Ingenuity Pathway Analysis (canonical pathways) of DE genes in treated DFT1 1426 cells. Format: cell-based, Tasmanian devil (Sarcophilus harrisii). The settings on record: DE genes of cells treated with 500 μg/mL for 10 h. As to the method: as §1
Data set [4] has as its system human cell line A549. Conditions: 500 µg/mL; cited from earlier work. As to the method: Here we aimed to identify cathelicidin candidates for future development as anti-DFTD therapeutics. Four Tasmanian devil cathelicidins (Saha-CATH3, 4, 5 and 6) were toxic to DFT1 1426 cells at high concentrations: Saha-CATH3 at concentrations ≥ 62.5 µg/mL; Saha-CATH4 at 500 µg/mL; Saha-CATH5 at concentrations ≥ 125 µg/mL and Saha-CATH6 at concentrations ≥ 250 µg/mL. Previous studies have shown that two of these peptides (Saha-CATH3 and 4) are non-toxic to human cell line A549[44]. The other two (Saha-CATH5 and 6) reduced cell viability at high concentrations (500 µg/mL), resulting in 42% and 5 ...

The test system of data set [5] is human red blood cells. The settings on record: human red blood cells; cited from earlier work. From the text: Cathelicidins have been isolated from many vertebrate taxa[34]–[37]. However, they have undergone gene expansion in marsupials due to the need for additional protection of immunologically naïve young during development in the pouch. […] During development within the pouch, young are exposed to diverse microbial flora, some of which are pathogenic. This has likely encouraged the lineage-specific expansion of cathelicidins in marsupials, resulting in mult ...

Where [6] appears, read: 500 μg/mL, 36 h, DFT1 1426 cells.
Where [7] appears, read: pre-replication complex, RNAseq.

Like-named read-outs stand apart in the source and are kept apart here. No end group written: not given here.

Regarding KRIGLGGLIGRILDRLRRLG [Saha-CATH5], in data set [1] (setting [6]), the “decrease in cell viability compared to the growth control” value was “more than 50%”. Also, in data set [1], the “cell viability (% of untreated growth control)” value was determined as 0% and the “concentration toxic to DFT1 1426 cells” value was not below 125 µg/mL. The “cytotoxic concentration (cell viability reduced by more than 50%)” value in data set [1] (36 h) was not below 125 µg/mL. For the same sequence, the “Fold change (FC), gene ERBB3” value in data set [2] (RNAseq) stood at 0.34. Further, in data set [2] (G1-S phase transition, RNAseq), the “Fold change, gene CCND1” value is on record as 0.52; the “Fold change, gene CCNE1” value is listed as 0.37; the “Fold change, gene CCNE2” value came out at 0.30. In addition, the “percentage of DE genes” value in data set [2] is on record as 74.05%. Further, in data set [2] (setting [7]), the “Fold change, gene CDC6” value came to 0.39; the “Fold change, gene CDC45” value worked out at 0.42; the “Fold change, gene ORC1” value worked out at 0.54. Further, in data set [3], the “IPA z-score, ERBB2-ERBB3” value is listed as -4.439; the “IPA z-score, ERBB4 signaling” value is given as -5.425; the “IPA z-score, ERBB signaling” value is -6.068; the “IPA z-score, Hippo signalling” value worked out at 0.898. In data set [3], the “IPA z-score, cell cycle control of chromosomal replication” value is -3.780. Besides, the “cell survival of human cell line A549” value in data set [4] is recorded as 42%. For the same sequence, the “concentration at which moderately haemolytic” value in data set [5] was “above 250 μg/mL”.
For the sequence “KRIRFFERIRDRLRDLGNRIKNRIRDFFS [Saha-CATH6]”, in data set [1] (setting [6]), the “decrease in cell viability compared to the growth control” value was “more than 50%”. Further, in data set [1] (500 μg/mL, DFT1 1426 cells), the “incubation period required before exhibiting a similar level of toxicity to Saha-CATH5” value is on record as 18 h. Besides, in data set [1], the “cell viability (% of untreated growth control)” value stood at 0% and the “concentration toxic to DFT1 1426 cells” value is listed as not below 250 µg/mL. In addition, the “cytotoxic concentration (cell viability reduced by more than 50%)” value in data set [1] (18 h) was not below 250 µg/mL. For the same sequence, in data set [2] (RNAseq), the “Fold change (FC), ATF3” value stood at 5.02; the “Fold change (FC), CHOP (DDIT3)” value was found to be 1.91; the “Fold change (FC), GADD34 (PPP1R15A)” value worked out at 2.14. In addition, in data set [2] (cytokine receptor, RNAseq), the “Fold change, gene IL1R1” value came out at 2.29; the “Fold change, gene IL6R” value was determined as 1.70; the “Fold change, gene IL21R” value is given as 1.58. Moreover, the “Fold change, gene IL6” value in data set [2] (cytokine, RNAseq) is listed as 11.14. The “Fold change, gene MYD88” value in data set [2] (immune signaling, RNAseq) was 1.78. Moreover, in data set [2], the “percentage of DE genes” value came out at 15.56%. Further, the “Fold change, gene RUNX1” value in data set [2] (transcription factor, RNAseq) stood at 1.61. Besides, in data set [3], the “IPA z-score, EIF2 signaling” value worked out at 4.352 and the “IPA z-score, Th17 activation pathway” value amounted to 2.53. In addition, the “cell survival of human cell line A549” value in data set [4] is given as 59%. Besides, the “concentration at which moderately haemolytic” value in data set [5] is on record as “above 250 μg/mL”.
